Measured values published in article PMC9289672, “Optimization of Antibacterial Activity in Tibetan Swine α-Helix Peptide TP by Site-Directed Mutagenesis” (Frontiers in Microbiology, 2022).
Where no end group is shown, it is not given here.

Assays:
[1] = tested on: Enterococcus faecalis ATCC 29212
Description: (§1) The bacteria strains Escherichia coli ATCC 25922, Escherichia coli UB1005, Salmonella typhimurium ATCC 14028, Salmonella typhimurium C7731, Pseudomonas aeruginosa ATCC 27853, Pseudomonas aeruginosa PAO1, Staphylococcus aureus ATCC 29213, Staphylococcus aureus ATCC 25923, Methicillin-resistant Staphylococcus aureus (MRSA) 43300, Enterococcus faecalis ATCC 29212, and Staphylococcus epidermidis ATCC 12228 were obtained from the College of Veterinary Medicine, Northeast Agricultural University (Harbin, China).
(§2) The bacteria were cultured overnight in the MHB medium and transferred to the new MHB the next day until the bacteria reached the exponential growth stage. The bacteria were diluted with MHB to 2 × 10^5 CFU/ml. About 50 μl of polypeptide and equal volume of bacterial suspension was added to a 96-well plate to give the final concentration of polypeptide between 1 and 128 μm. The last two columns are negative (MHB only) and positive (bacterial and MHB) controls and incubated at 37°C for 18–24 h. Optical density was measured at an absorbance wavelength of 492 nm using a microplate reader (Tecan GENios F129004, Tecan, Austria). At least three independent measurements were taken. Each trial was conducted two times in parallel. A total of three independent assays were carried out.

[2] = tested on: Escherichia coli ATCC 25922
Description: as §1, §2

[3] = tested on: Methicillin-resistant Staphylococcus aureus (MRSA) 43300; conditions: Methicillin-resistant 43300
Description: as §1, §2

[4] = tested on: Pseudomonas aeruginosa ATCC 27853
Description: as §1, §2

[5] = tested on: Pseudomonas aeruginosa PAO1
Description: as §1, §2

[6] = tested on: Salmonella typhimurium ATCC 14028
Description: as §1, §2

[7] = tested on: Staphylococcus aureus ATCC 25923
Description: as §1, §2

[8] = tested on: Staphylococcus aureus ATCC 29213
Description: as §1, §2

[9] = tested on: Staphylococcus epidermidis ATCC 12228
Description: as §1, §2

[10] = tested on: Gram-negative bacteria; assay: Geometric mean of MIC and therapeutic index; format: cell-based; conditions: for Therapeutic index (TI), Gram-negative bacteria: MHC/GM, 128 μm used when 50% hemolysis not observed at 128 μm
Protocol: as §2
(§3) Trp is a hydrophobic amino acid with aromatic side chains. It is a special amino acid in peptide design. Previous studies have pointed out that introducing amino acids will also bring toxicity while improving activity. […] For further evaluating the cell selectivity of the peptides, we also calculated the SI which defined as the ratio of MHC to the geometric mean (GM) (Dufourc, [2008]).

[11] = tested on: Gram-positive bacteria; assay: Geometric mean of MIC and therapeutic index; format: cell-based; conditions: for Therapeutic index (TI), Gram-positive bacteria: MHC/GM, 128 μm used when 50% hemolysis not observed at 128 μm
Protocol: as §2, §3

[12] = tested on: all strains in Table 2; assay: Geometric mean of MIC and therapeutic index; format: cell-based; conditions: for Therapeutic index (TI) / selectivity index (SI), All: MHC/GM, 128 μm used when 50% hemolysis not observed at 128 μm
Protocol: as §2
Trp is a hydrophobic amino acid with aromatic side chains. It is a special amino acid in peptide design. Previous studies have pointed out that introducing amino acids will also bring toxicity while improving activity. Therefore, at the beginning of the design, we predicted that selecting Trp as hydrophobic amino acid to substitute H-H position would bring certain toxicity to the peptide. Thus, as expected, the introduction of Trp increases the activity and toxicity of these peptides. […] Meanwhile, the virulence of TP(i+4) 1&2&5&6 and TP(i+4) 1&2&6&7 was lower than that of TP(i+4) 1&2&5&7. We infer that the location of hydrophobic centers can effectively reduce peptide toxicity by Trp substitution. For further evaluating the cell selectivity of the peptides, we also calculated the SI which defined as the ratio of MHC to the geometric mean (GM) (Dufourc, [2008]).

[13] = tested on: hRBCs (human red blood cells)
Protocol: The cytotoxicity of each peptide was assessed with IPEC-J12 and HEK 293T cells. […] Each trial was conducted two times in parallel. A total of three independent assays were carried out.

[14] = tested on: Escherichia coli UB1005; conditions: MHB, bacteria diluted to 2 × 10^5 CFU/ml, peptide 1-128 μm, 37°C 18-24 h, OD 492 nm; three independent assays, two in parallel
Description: as §1, §2

[15] = tested on: Salmonella typhimurium C7731; conditions: MHB, bacteria diluted to 2 × 10^5 CFU/ml, peptide 1-128 μm, 37°C 18-24 h, OD 492 nm; three independent assays, two in parallel
Description: as §1, §2

[16] = strains of Table 2, 128 μm used when no activity at 128 μm

Substance | MIC, E. faecalis 29212 [1] [µM] | MIC, E. coli 25922 [2] [µM] | MIC, S. aureus 43300 [3] [µM] | MIC, P. aeruginosa 27853 [4] [µM] | MIC, P. aeruginosa PAO1 [5] [µM] | MIC, S. typhimurium 14028 [6] [µM] | MIC, S. aureus 25923 [7] [µM] | MIC, S. aureus 29213 [8] [µM] | MIC, S. epidermidis 12228 [9] [µM] | Geometric mean (GM) of MIC, Gram-negative bacteria [10, 16] [µM] | Geometric mean (GM) of MIC, Gram-positive bacteria [11, 16] [µM] | Geometric mean (GM) of MIC, All ([12]; all strains in Table 2, 128 μm used when no activity at 128 μm) [µM] | MHC (concentration of peptide that causes hemolysis of 50% of human red blood cells) [13] [µM] | MIC, E. coli UB1005 [14] [µM] | MIC, S. typhimurium 7731 [15] [µM] | Therapeutic index (TI), Gram-negative bacteria [10] | Therapeutic index (TI), Gram-positive bacteria [11] | Therapeutic index (TI) / selectivity index (SI), All [12]
AKVVKKLTKGVAGLLK-NH2 [TP(i+4) 1&3] | >128 | 64 | >128 | 128 | 64 | >128 | >128 | >128 | >128 | 71.84 | 128.00 | 95.89 | >128 |  |  |  |  | 
AKVVKKLTKGVAKLLK-NH2 [TP(i+4) 1&2&3] | >128 | 32 | >128 | 64 | 16 | 128 | >128 | >128 | >128 |  |  |  | >128 | 8 | 64 | 3.56 | 1.00 | 1.89
AKVVNKLTGGVAGLLK-NH2 [TP(i+4) 3] | >128 | >128 | >128 | >128 | >128 | >128 | >128 | >128 | >128 |  |  |  | >128 | >128 | >128 | 1.00 | 1.00 | 1.00
AKVVNKLTGKVAGLLK-NH2 [TP(i+4) 3&4] | >128 | 128 | >128 | >128 | 128 | >128 | >128 | >128 | >128 |  |  |  | >128 | 64 | >128 | 1.12 | 1.00 | 1.06
AKVVNKLTKKVAKLLK-NH2 [TP(i+4) 2&3&4] | >128 | 16 | >128 | 128 | 8 | 64 | >128 | >128 | >128 |  |  |  | >128 | 16 | 64 | 4.00 | 1.00 | 2.00
ASVVKKLTKGVAGLLK-NH2 [TP(i+4) 1] | >128 | 16 | >128 | 64 | 64 | 128 | >128 | >128 | >128 |  |  |  | >128 | 16 | 64 | 2.83 | 1.00 | 1.68
ASVVKKLTKKVAGLLK-NH2 [TP(i+4) 1&4] | >128 | 8 | >128 | 32 | 16 | 64 | >128 | >128 | >128 |  |  |  | >128 | 8 | 32 |  | 1.00 | 2.56
ASVVKKLTKKVAKLLK-NH2 [TP(i+4) 1&2&4] | >128 | 4 | >128 | 32 | 8 | 64 | >128 | >128 | >128 |  |  |  | >128 | 4 | 32 | 8.90 | 1.00 | 2.98
